According to patent US4525356A, “N-substituted flavone-8-carboxamides” (Hokuriku Pharmaceutical Co., Ltd., priority 1982, dated 1985):

Legend:
[1] = in vitro; assay type: in vitro ADME, male Wister rats; conditions: rat, pH 6; for Ratio of Effect (T 1/2): 50 uM; for half-life at 50 µM: small intestinal mucosa homogenate
Method: (2) Stability in acidic medium (corresponding to artificial small intestinal juice)
After sacrificing male Wister rats (weighing approximately 300 g), small intestine was taken out and small intestinal mucous membrane was scraped off, and 20 ml of 0.1M phosphate buffer (pH 6.00) were added per 0.5 g of small intestinal mucous membrane (wet weight) to give 2.5% of homogenate.
Test compound was dissolved in the homogenate to give definite concentration (50 uM). With shaking of the obtained mixture at 37° C., sampling was carried out from time to time, and the content of each compound was quantitatively measured by analyzing peak height of each compound by a reversed-phase high performance liquid chromatography. The half-life time of each compound in acidic medium (corresponding to artificial small intestinal juice, pH 6.0) was measured from a graph indicating content change of each compound against time.
The compounds of the present invention and flavoxate (Reference 1) should be absorbed, after p.o. administation, in the small intestine to show medical effect. Therefore, the stability of the compounds against the hydrolyzation according to the nonspecific esterase contained in small intestinal mucous membrane is very important.

[2] = test system: urinary reflex; test: Supression of urinary reflex (bladder balloon, intraduodenal administration); assay type: in vivo, male Wister rats; conditions: for ED50: Rattus norvegicus, 50% effective dose, suppression of urinary reflex by more than 50%, up and down method, anesthetized male Wister rats, via duodenum, read-out: ID50 (the source's name); for Ratio of Effect: from ID50, Effect of Reference (Reference 1) defined as 1.00
Method: According to the method of Kaseda et al. (Rinsho Seiri, 5, 540 (1975)), male Wister rats, weighing approximately 300 g and fasted for 15 to 20 hours prior to experiments, were anesthetized by intraperitoneal injection of 500 mg/Kg of urethane and 50 mg/Kg of α-chloralose, and fixed to a supine position. Then the lower abdomen was opened through a midline incision to expose the bladder, and a balloon (1.5 to 2.0 cm^3) was inserted into the urinary bladder via small incision in the base thereof. The change of inner pressure is recorded via pressure transducer. The urinary reflex was induced by elevating the inner pressure to 10 to 20 cm H2 O. Urine was excreted from the incision of the bladder, where balloon was inserted.
The test compounds were given through polyethylene tube inserted into duodenum via an incision in the fundus.
Mean value of contraction according to the urinary reflex appeared during ten minutes before the administration of the compounds, and at 15, 30, 45 and 60 minutes thereafter, have been investigated for the determination of the effect of the present compounds. The mean value suppressed by more than 50% compared to the initial value has been estimated as effect. ID50 (50% effective dose) was obtained by up and down method.

| SMILES | Ratio of Effect (T 1/2) [1] | half-life at 50 µM [1] [days] | ED50 [2] [mg/kg] | Ratio of Effect [2] |
| --- | --- | --- | --- | --- |
| Cc1c(-c2ccccc2)oc2c(C(=O)OCCN3CCCCC3)cccc2c1=O [Reference 1, flavoxate, reference compound] | 1.0 | 0.0254 | 272 | 1.00 |
| CCN(CC)CCOC(=O)c1cccc2c(=O)c(C)c(-c3ccccc3)oc12 [Reference 2, reference compound] | 2.3 | 0.0579 | 325 | 0.84 |
| Cc1c(-c2ccccc2)oc2c(C(=O)O)cccc2c1=O [Reference 3, reference compound] |  |  | 308 | 0.89 |
| CCN(CC)CCNC(=O)c1cccc2c(=O)c(C)c(-c3ccc(OC)cc3)oc12 [Compound 5] | 1177.4 | 29.9 | 93.3 | 2.92 |
| CCN(CC)CCNC(=O)c1cccc2c(=O)c(C)c(-c3ccccc3)oc12 [Compound 1] | 1066.1 | 27.1 | 36.7 | 7.42 |
| Cc1c(-c2ccccc2)oc2c(C(=O)NCCN3CCCCC3)cccc2c1=O [Compound 2] | 475.4 | 12.1 | 26.8 | 10.16 |
| Cc1c(-c2ccccc2)oc2c(C(=O)NCC(C)N3CCCCC3)cccc2c1=O (stereo not drawn) [Compound 4] | 1276.9 | 32.5 | 46.7 | 5.83 |
| CCN(CC)CCN(C)C(=O)c1cccc2c(=O)c(C)c(-c3ccccc3)oc12 [Compound 3] | 252.1 | 6.41 | 46.7 | 5.83 |
